Measured values published in publication PMC7146574, “Efficacy of a Novel ACE-Inhibitory Peptide from Sargassum maclurei in Hypertension and Reduction of Intracellular Endothelin-1” (Nutrients, 2020).
Residues, ends and D or L forms follow the SMILES beside them.

How the values were obtained:
[1] = system: spontaneously hypertensive rats (SHRs); test: Antihypertensive effect in vivo, tail-cuff method; design: species or system rat; settings: oral 50, 100 and 150 mg/kg body weight every day (Figure S3)
Method: Twenty male spontaneously hypertensive rats (SHRs; 11 weeks, 240 ± 20 g body weight) from Vital River Laboratory Animal Technology Co., Ltd. (Beijing, China) were randomly divided into five groups of four rats each: negative control, positive control, and high-, middle- and low- dosage groups. Normal diet and tap water were freely available. Rats in the high-, middle-, and low-dose groups were orally given the synthetic peptide (RWDISQPY) via gastric intubation at 150, 100, and 50 mg/kg/body weight once daily, respectively. Meanwhile, rats in the positive control were orally given captopril (14 mg/kg/body weight once daily), and rats in the negative control were just administrated saline (0.9%). The diastolic blood pressure (DBP) and systolic blood pressure (SBP) of the rats were measured by the tail-cuff method once a week. The heart rate was recorded simultaneously. The animal experiment was conducted in conformity with institutional guidelines for the care and use of laboratory animals in Shanxi Normal University (No. 20181003, 16 September 2018), Linfen, China. All of the rats received human care conforming to the National Institutes of Health Guide for Care and Use of Laboratory Animals (National Institute of Health Publication No. 85–23, revised).

[2] = system: endothelin-1 (ET-1) in EA.hy926 cells; test: Effects on intracellular endothelin-1 (ET-1), ELISA of growth medium; type: cell-based, human; settings: captopril 1.0 mg/mL as comparison, 48 h
Method: In a humidified atmosphere with 5% CO2, the EA.hy926 cells (a permanent hybridoma of the human umbilical vein endothelial cells and human lung carcinoma cell line A549) grown in 96-well plates were cultured in DMEM containing non-essential amino acids (10 mg/mL), streptomycin (0.1 mg/mL), and fetal bovine serum (0.1 g/mL) at 37 °C [5]. The cells (1.0 × 10^5 cells mL^−1) were treated with the synthesized peptides (0.5–1.5 mg/mL) for 24 h, and then the MTT assay was used to measure the cytotoxicity levels of the peptides. Moreover, EA.hy926 cells seeded in another 96-well plate (1.0 × 10^5 cells mL^−1) were cultured in DMEM at 37 °C for 24 h, and then treated with synthesized peptides (1–2 mg/mL) for 48 h. After that, the ET-1 content of the growth medium in each well was quantified by the ET-1 Elisa kit according to the instructions. Cells in the blank group were not treated with samples, while the cells in the positive group were treated with captopril (1 mg/mL). The inhibition ability on ET-1 was calculated as follows:(1) Inhibition abliliy (%)=(CB−Cs)/CB×100% where CB was the ET-1 content of the growth medium in the blank group and CS was the ET-1 content of the growth medium treated with the samples.

ACE = system: ACE; design: method as in 5 sources, ref 8, 38 = [8]; PMID 30893907; doi:10.3390/md17030179; 8. Sun S. Xu X. Sun X. Zhang X. Chen X. Xu N. Preparation and Identification of ACE Inhibitory Peptides from the Marine Macroalga Ulva intestinalis Mar. Drugs 2019 17 179 10.3390/md17030179 PMC6471128 || [38]; doi:10.1016/j.jff.2015.10.025; 38. Forghani B. Zarei M. Ebrahimpour A. Philip R. Bakar J. Abdul-Hamid A. Saari N. Purification and characterization of angiotensin converting enzyme-inhibitory peptides derived from Stichopus horrens ||| ref 5, 9 = [5]; PMID 31108740; doi:10.1016/j.foodres.2019.03.035; 5. Zhao Y. Zhang L. Tao J. Chi C. Wang B. Eight antihypertensive peptides from the protein hydrolysate of Antarctic krill ( Euphausia superba ): Isolation, identification, and activity evaluation on h || [9]; PMID 30229250; doi:10.1039/C8FO00569A; 9. Ling Y. Sun L.P. Zhuang Y.L. Preparation and identification of novel inhibitory angiotensin-I-converting enzyme peptides from tilapia skin gelatin hydrolysates: Inhibition kinetics and molecular do ||| ref 38, 40 = [38]; doi:10.1016/j.jff.2015.10.025; 38. Forghani B. Zarei M. Ebrahimpour A. Philip R. Bakar J. Abdul-Hamid A. Saari N. Purification and characterization of angiotensin converting enzyme-inhibitory peptides derived from Stichopus horrens || [40]; PMID 29606478; doi:10.1016/j.foodchem.2018.02.107; 40. Tu M. Wang C. Chen C. Zhang R. Liu H. Lu W. Jing L. Du M. Identification of a novel ACE-inhibitory peptide from casein and evaluation of the inhibitory mechanisms Food Chem. 2018 256 98 104 10.101 ||| ref 41, 28 = [41]; doi:10.1016/j.lwt.2018.12.059; 41. Bhaskar B. Ananthanarayana L. Jamdar S. Purification, identification, and characterization of novel angiotensin I converting enzyme (ACE) inhibitory peptides from alcalase digested horse gram flou || [28]; doi:10.1016/j.jff.2017.03.008; 28. Lin K. Zhang L. Han X. Cheng D.Y. Novel angiotensin I-converting enzyme inhibitory peptides from protease hydrolysates of Qula casein: Quantitative structure-activity relationship modeling and mol ||| ref 25 = [25]; doi:10.1016/j.lwt.2016.08.047; 25. Wang X. Chen H. Fu X. Li S. Wei J. A novel antioxidant and ACE inhibitory peptide from rice bran protein: Biochemical characterization and molecular docking study LWT Food Sci. Technol. 2017 75 93; settings: cited from earlier work; for IC50: literature comparison

Compound | IC50 (ACE) [µM] | ACE inhibition pattern (ACE) | also measured
CC[C@H](C)[C@H](NC(=O)[C@H](CC(=O)O)NC(=O)[C@H](Cc1c[nH]c2ccccc12)NC(=O)[C@@H](N)CCCNC(=N)N)C(=O)N[C@@H](CO)C(=O)N[C@@H](CCC(N)=O)C(=O)N1CCC[C@H]1C(=O)N[C@@H](Cc1ccc(O)cc1)C(N)=O [RWDISQPY] (H-RWDISQPY-NH2) |  |  | Effect on heart rate [1]: no side effect; Effect on normal increase in body weight [1]: no side effect
C[C@H](CS)C(=O)N1CCC[C@H]1C(=O)O [captopril] |  |  | Effect on ET-1 secretion [2]: reduce ET-1 secretion
FGMPLDR | 219 |  | 
GSAGY [literature peptide identified from horrens protein] | 706 |  | 
NMAINPSKENLCSTFCK | 129 |  | 
PFPGPIPN |  | competitive | 
QAGLSPVR | 63.9 |  | 
QLLLQQ |  | competitive | 
TVGMTAKF |  | competitive | 
VSRHFASYAN | 210 |  | 
